Read-outs that look alike come from different tables or passages of the source.
Test system: Spleen cells
Assay: Mitogenesis assay for immunosuppressive activity (concanavalin A stimulated spleen cells, 3H-thymidine)
Type: cell-based, BDF1 female mice
Settings: Mus musculus, read-out: Mitogenesis (IC50)
Experimental: Spleen cells for BDF1 female mice were established in RPMI with 10% fetal calf serum at 5×10^6 /mL. One hundred […] of this suspension (5×10^5 cells) were dispensed into 96-well round-bottomed microtiter plates (Linbro, Flow Laboratories). Concanavalin A (5 μg/ml) was added as the mitogenic stimulus, and the final volume in the microtiter wells was adjusted to 200 μL with RPMI. Cell cultures were incubated for 72 hours at 37° C. in a 5% CO2 atmosphere and pulsed with 0.5 μCi ^3 H-thymidine (specific activity […]) for the last 18 hours of the 72 hours culture. The cells were harvested on an automated multiple sample harvester and cell-associated radioactivity counted in a Beckman liquid scintillation counter. The results were expressed as the mean values derived from quadruplicate measurements. Cell viability was determined by trypan blue exclusion after 72 hours of incubation. Compounds to be tested were added to the microtiter plates at the appropriate dilutions prior to the addition of cells.

| IC50 (Concanavalin A 5 μg/ml, 72 hours at 37° C., 3H-thymidine pulse last 18 hours) | Compound | IC50 |
| --- | --- | --- |
| 3 nM | COC1CC2CCC(C)C(O)(O2)C(=O)C(=O)N2CCCCC2C(=O)OC(C(C)CC2CCC(O)C(O)C2)CC(=O)C(C)C=C(C)C(O)C(OC)C(=O)C(C)CC(C)C=CC=CC=C1C (centres unmarked) [42-O-demethylrapamycin] |  |
|  | CO[C@H]1C[C@@H]2CC[C@@H](C)[C@@](O)(O2)C(=O)C(=O)N2CCCC[C@H]2C(=O)O[C@H]([C@H](C)C[C@@H]2CC[C@@H](O)[C@H](OC)C2)CC(=O)[C@H](C)/C=C(\C)[C@@H](O)[C@@H](OC)C(=O)[C@H](C)C[C@H](C)/C=C/C=C/C=C/1C [rapamycin] | 1 ± 1 nM |

Reference: US5712129A, “Rapamycin derivative with antimicrobial, anticancer and immunomodulation activity” (SmithKline Beecham p. l. c., priority 1993, dated 1998)
